Laboratory results reported in article PMC6658524, “Lysosomal degradation of newly formed insulin granules contributes to β cell failure in diabetes” (Nature Communications, 2019).

What was measured:
Assay in all cases: biochemical
Set-up in all cases: Eurofins KinaseProfiler panel of 60 kinases, per cent inhibition
[1] = target: ALK(h) (Homo sapiens, UniProt Q9UM73)
Source text: (§1) A more detailed account of the discovery, chemistry and biochemical properties of this novel class of selective p38δ inhibitors will be given elsewhere.

[2] = target: BrSK2(h) (Homo sapiens, UniProt Q8IWQ3)
BrSK2(h), sequence (Q8IWQ3 whole entry): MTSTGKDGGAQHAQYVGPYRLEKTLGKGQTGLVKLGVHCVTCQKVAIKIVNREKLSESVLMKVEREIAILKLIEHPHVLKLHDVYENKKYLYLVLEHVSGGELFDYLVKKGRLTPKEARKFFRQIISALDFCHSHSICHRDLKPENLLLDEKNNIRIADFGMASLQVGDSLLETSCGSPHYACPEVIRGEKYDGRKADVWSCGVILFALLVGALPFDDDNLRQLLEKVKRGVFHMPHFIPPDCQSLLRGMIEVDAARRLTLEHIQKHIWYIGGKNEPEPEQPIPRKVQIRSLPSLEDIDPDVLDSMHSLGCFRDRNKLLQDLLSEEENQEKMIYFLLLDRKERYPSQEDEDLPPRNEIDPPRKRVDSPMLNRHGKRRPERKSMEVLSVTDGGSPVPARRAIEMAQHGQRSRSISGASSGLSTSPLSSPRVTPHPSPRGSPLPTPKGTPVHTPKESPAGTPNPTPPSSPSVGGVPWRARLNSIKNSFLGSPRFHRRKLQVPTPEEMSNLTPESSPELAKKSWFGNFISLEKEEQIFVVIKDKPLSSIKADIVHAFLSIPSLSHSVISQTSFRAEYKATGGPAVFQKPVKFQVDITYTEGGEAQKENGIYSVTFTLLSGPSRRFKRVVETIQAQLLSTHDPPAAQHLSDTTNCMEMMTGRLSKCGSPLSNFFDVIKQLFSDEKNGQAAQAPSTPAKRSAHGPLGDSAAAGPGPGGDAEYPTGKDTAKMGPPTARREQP
Source text: as §1

[3] = target: DDR2(h) (Homo sapiens, UniProt Q16832)
Source text: as §1

[4] = target: DYRK2(h) (Homo sapiens, UniProt Q92630)
Source text: as §1

[5] = target: EphA1(h) (Homo sapiens, UniProt P21709)
Source text: as §1

[6] = target: EphA3(h) (Homo sapiens, UniProt P29320)
Source text: as §1

[7] = target: EphB4(h) (Homo sapiens, UniProt P54760)
Source text: as §1

[8] = target: FGFR1(h) (Homo sapiens, UniProt P11362)
Source text: as §1

[9] = target: Flt3(h) (Homo sapiens, UniProt P36888)
Source text: as §1

[10] = target: T1, GSK3β(h) (Homo sapiens, UniProt P49841)
T1 construct: gene GSK3B
Source text: as §1

[11] = target: T2, IKKε(h) (Homo sapiens, UniProt Q14164)
T2 construct: gene IKBKE
Source text: as §1

[12] = target: T3, IR(h) (Homo sapiens, UniProt P06213)
T3 construct: gene INSR
Source text: as §1

[13] = target: JAK3(h) (Homo sapiens, UniProt P52333)
JAK3(h), sequence (P52333 whole entry): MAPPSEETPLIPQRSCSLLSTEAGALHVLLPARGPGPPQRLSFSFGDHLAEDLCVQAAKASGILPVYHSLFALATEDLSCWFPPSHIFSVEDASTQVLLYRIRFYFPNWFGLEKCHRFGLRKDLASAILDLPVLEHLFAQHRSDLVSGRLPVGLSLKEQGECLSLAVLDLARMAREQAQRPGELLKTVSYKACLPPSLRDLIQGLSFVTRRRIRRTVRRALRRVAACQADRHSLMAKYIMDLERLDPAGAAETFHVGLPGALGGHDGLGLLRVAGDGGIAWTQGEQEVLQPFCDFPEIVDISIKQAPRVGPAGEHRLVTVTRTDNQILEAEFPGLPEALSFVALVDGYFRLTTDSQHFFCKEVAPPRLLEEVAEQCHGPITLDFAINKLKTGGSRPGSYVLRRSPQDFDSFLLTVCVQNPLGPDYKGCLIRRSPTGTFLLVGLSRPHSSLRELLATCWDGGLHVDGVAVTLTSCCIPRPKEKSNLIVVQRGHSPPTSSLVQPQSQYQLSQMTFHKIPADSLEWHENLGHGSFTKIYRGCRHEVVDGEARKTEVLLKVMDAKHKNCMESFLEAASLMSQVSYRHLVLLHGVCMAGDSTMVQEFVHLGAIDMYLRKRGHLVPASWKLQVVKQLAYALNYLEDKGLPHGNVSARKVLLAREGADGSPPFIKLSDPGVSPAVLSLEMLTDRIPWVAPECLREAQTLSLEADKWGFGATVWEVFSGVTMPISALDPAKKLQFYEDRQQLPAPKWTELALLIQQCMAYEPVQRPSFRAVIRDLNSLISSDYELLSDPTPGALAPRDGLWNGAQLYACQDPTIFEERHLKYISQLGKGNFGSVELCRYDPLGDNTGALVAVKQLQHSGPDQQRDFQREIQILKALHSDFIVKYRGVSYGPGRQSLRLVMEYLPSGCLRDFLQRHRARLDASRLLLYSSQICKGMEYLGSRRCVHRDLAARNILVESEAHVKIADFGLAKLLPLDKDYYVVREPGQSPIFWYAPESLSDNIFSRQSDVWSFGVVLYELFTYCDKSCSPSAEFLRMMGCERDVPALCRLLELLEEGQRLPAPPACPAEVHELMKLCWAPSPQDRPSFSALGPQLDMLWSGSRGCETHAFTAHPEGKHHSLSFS
Source text: as §1

[14] = target: KDR(h) (Homo sapiens, UniProt P35968)
Source text: as §1

[15] = target: MELK(h) (Homo sapiens, UniProt Q14680)
Source text: as §1

[16] = target: Met(h) (Homo sapiens, UniProt P08581)
Source text: as §1

[17] = target: T4, PKA(h) (Homo sapiens, UniProt P17612)
T4 construct: gene PRKACA
Source text: as §1

[18] = target: T5, PKCβII(h) (Homo sapiens, UniProt P05771)
T5 construct: gene PRKCB; isoform beta II
T5 sequence (P05771 whole entry, canonical isoform): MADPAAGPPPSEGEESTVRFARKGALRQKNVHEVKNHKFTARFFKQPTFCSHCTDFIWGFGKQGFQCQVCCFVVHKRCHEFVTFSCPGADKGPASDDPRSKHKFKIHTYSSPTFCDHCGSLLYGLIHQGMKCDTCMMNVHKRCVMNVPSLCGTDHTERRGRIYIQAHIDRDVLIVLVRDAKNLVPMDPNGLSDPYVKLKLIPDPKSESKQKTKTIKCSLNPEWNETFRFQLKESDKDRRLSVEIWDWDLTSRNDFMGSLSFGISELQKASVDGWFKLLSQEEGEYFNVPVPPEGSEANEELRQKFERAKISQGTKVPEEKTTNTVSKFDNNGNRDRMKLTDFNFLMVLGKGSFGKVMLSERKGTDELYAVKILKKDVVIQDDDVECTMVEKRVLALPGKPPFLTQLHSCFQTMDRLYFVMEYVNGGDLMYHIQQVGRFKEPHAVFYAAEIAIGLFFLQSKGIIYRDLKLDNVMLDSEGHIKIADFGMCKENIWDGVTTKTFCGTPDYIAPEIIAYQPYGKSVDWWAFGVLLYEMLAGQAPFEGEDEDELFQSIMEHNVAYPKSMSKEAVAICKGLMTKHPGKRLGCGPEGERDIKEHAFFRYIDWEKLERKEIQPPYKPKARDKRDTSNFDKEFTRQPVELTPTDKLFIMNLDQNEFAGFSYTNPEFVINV
Source text: as §1

[19] = target: T6, PKCθ(h) (Homo sapiens, UniProt Q04759)
T6 construct: gene PRKCQ
Source text: as §1

[20] = target: T7, Pim-2(h) (Homo sapiens, UniProt Q9P1W9)
T7 construct: gene PIM2
Source text: as §1

[21] = target: Syk(h) (Homo sapiens, UniProt P43405)
Source text: as §1

[22] = target: T8, c-RAF(h) (Homo sapiens, UniProt P04049)
T8 construct: gene RAF1
Source text: as §1

[23] = target: T9, cKit(h) (Homo sapiens, UniProt P10721)
T9 construct: gene KIT
T9 sequence (P10721 whole entry): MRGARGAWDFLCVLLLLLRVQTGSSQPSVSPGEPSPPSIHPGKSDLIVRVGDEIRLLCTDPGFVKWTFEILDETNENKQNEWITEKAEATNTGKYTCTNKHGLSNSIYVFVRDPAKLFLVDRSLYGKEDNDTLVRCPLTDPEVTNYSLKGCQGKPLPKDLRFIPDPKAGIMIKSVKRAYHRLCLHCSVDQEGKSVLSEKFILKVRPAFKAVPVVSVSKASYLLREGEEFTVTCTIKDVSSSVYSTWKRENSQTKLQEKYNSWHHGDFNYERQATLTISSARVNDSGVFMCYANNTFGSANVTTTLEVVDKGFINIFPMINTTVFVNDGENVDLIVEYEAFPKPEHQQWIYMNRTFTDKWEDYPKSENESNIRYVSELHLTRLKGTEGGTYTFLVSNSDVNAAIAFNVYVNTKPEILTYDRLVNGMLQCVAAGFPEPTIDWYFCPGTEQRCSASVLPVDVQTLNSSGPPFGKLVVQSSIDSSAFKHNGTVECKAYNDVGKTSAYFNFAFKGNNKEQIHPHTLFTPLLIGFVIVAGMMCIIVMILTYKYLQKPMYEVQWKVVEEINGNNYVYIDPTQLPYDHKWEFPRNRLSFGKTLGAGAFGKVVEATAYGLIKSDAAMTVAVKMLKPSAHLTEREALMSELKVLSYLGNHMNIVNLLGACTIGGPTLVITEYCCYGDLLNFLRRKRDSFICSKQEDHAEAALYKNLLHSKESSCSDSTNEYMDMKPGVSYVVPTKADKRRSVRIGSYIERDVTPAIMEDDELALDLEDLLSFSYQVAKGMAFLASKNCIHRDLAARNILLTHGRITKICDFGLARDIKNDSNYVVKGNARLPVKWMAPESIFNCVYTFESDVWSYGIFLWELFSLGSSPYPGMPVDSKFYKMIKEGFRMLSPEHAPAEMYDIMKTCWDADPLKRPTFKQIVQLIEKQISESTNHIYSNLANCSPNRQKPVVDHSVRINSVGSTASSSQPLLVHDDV
Source text: as §1

[24] = target: mTOR(h) (Homo sapiens, UniProt P42345)
Source text: as §1

[25] = target: T10, p70S6K(h) (Homo sapiens, UniProt P23443)
T10 construct: gene RPS6KB1
Source text: as §1

ALK(h), sequence (Q9UM73 whole entry): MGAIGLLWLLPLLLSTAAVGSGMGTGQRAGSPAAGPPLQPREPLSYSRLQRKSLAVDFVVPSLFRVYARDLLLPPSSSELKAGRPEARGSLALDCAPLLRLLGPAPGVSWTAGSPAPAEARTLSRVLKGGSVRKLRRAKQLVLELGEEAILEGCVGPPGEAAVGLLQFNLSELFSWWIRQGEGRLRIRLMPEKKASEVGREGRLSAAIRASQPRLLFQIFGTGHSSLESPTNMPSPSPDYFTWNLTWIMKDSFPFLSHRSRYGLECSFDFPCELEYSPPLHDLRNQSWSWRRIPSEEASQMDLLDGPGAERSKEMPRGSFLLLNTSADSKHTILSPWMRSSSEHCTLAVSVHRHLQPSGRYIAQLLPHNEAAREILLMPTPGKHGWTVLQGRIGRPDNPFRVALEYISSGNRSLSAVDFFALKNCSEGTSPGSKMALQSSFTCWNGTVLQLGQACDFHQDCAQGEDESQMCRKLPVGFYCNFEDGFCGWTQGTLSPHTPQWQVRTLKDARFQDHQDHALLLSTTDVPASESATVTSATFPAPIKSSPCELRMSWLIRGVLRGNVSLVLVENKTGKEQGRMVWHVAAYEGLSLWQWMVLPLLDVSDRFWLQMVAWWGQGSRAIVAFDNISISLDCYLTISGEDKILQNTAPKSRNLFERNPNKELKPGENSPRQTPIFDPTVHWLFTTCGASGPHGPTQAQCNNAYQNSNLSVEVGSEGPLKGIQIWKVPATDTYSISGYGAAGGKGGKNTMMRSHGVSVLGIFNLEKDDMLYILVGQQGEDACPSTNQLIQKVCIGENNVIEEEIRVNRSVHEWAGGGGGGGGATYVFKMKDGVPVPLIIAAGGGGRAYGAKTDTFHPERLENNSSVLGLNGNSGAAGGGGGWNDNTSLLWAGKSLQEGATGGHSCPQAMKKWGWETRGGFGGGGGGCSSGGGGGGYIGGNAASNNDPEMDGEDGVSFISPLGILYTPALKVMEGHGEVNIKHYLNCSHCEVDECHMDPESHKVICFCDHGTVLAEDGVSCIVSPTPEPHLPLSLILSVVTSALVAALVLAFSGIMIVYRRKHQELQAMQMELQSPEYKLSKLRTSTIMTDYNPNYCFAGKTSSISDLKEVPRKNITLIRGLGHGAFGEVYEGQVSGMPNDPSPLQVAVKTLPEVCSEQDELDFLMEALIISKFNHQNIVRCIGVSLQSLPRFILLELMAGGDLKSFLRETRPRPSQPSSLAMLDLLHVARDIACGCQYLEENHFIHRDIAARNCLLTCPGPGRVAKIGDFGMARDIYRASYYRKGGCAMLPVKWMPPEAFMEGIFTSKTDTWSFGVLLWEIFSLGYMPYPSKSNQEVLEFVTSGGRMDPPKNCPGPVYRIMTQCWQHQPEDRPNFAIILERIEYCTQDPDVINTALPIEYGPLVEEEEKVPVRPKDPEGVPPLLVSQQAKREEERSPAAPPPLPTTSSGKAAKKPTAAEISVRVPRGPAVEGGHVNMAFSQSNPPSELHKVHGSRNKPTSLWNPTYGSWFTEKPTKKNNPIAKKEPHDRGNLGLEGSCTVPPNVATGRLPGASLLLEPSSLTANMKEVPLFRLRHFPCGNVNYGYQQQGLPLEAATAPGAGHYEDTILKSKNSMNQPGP

CCN1CCOc2nc(N3CCOCC3)nc(-c3ccc(NC(=O)OC)cc3)c2C1=O [Compound A]
inhibition at 1 µM [1]: 4% | inhibition at 10 µM [1]: 0% | inhibition at 1 µM [2]: 5% | inhibition at 10 µM [2]: 5% | inhibition at 1 µM [3]: 6% | inhibition at 10 µM [3]: 15% | inhibition at 1 µM [4]: -10% | inhibition at 10 µM [4]: -10% | inhibition at 1 µM [5]: 0% | inhibition at 10 µM [5]: 7% | inhibition at 1 µM [6]: 8% | inhibition at 10 µM [6]: 12% | inhibition at 1 µM [7]: -3% | inhibition at 10 µM [7]: 8% | inhibition at 1 µM [8]: 9% | inhibition at 10 µM [8]: 6% | inhibition at 1 µM [9]: -30% | inhibition at 10 µM [9]: -25% | inhibition at 1 µM [10]: 1% | inhibition at 10 µM [10]: 12% | inhibition at 1 µM [11]: 16% | inhibition at 10 µM [11]: 18% | inhibition at 1 µM [12]: -21% | inhibition at 10 µM [12]: -14% | inhibition at 1 µM [13]: 0% | inhibition at 10 µM [13]: -5% | inhibition at 1 µM [14]: -16% | inhibition at 10 µM [14]: -12% | inhibition at 1 µM [15]: 2% | inhibition at 10 µM [15]: 9% | inhibition at 1 µM [16]: -16% | inhibition at 10 µM [16]: -7% | inhibition at 1 µM [17]: -8% | inhibition at 10 µM [17]: -22% | inhibition at 1 µM [18]: 0% | inhibition at 10 µM [18]: 1% | inhibition at 1 µM [19]: 7% | inhibition at 10 µM [19]: 7% | inhibition at 1 µM [20]: 8% | inhibition at 10 µM [20]: 7% | inhibition at 1 µM [21]: 4% | inhibition at 10 µM [21]: 20% | inhibition at 1 µM [22]: -5% | inhibition at 10 µM [22]: 2% | inhibition at 1 µM [23]: 4% | inhibition at 10 µM [23]: 6% | inhibition at 1 µM [24]: -1% | inhibition at 1 µM [25]: 15%
